Laboratory results reported in PMC5354814, “In silico and in vitro drug screening identifies new therapeutic approaches for Ewing sarcoma” (Oncotarget, 2016).

Columns and labels:
[1] = test system: RD-ES; experiment: Hits validation, dose-response cell proliferation (CellTiter-Glo); format: cell-based; conditions: 12-point dose-response 50 μmol/L to 1 nmol/L, mean ± SD
Method: (§1) For hits validation and combination study, cells were harvested and aliquoted into 384-well plates at concentrations of 750–1,500 cells per well in a total of 20 μl/well using a Matrix Wellmate (Thermo Scientific). Five μl of culture media containing either vehicles or drug were added to each well the next day (drug concentrations range from 1 nmol/L to 50 μmol/L). For combination study, selected drugs were archived in robotically accessible plates, to which media was added in preparation for addition to master plates by a Nimbus 96 liquid-dispensing workstation (Hamilton). Liquid transfers to dilution and assay plates were handled using the same workstation. Each 384-well master plate contained four 9 by 9 dose-matrix blocks, with eight serial two-fold dilutions (concentrations range from 7.8 nmol/L to 1 μmol/L). Additional wells were reserved for untreated, and vehicle-treated control wells. Cell proliferation was evaluated using Cell-Titer Glo® reagents (Promega). IC50 values were determined for each drug using SigmaPlot (Systat Software). The combination index values were calculated using SigmaPlot (Systat Software) and CompuSyn.

[2] = test system: SK-ES-1; experiment: as above; format: cell-based; conditions: 12-point dose-response 50 μmol/L to 1 nmol/L, mean ± SD
Method: as §1

[3] = test system: COG-E-352; experiment: as above; format: cell-based; conditions: 12-point dose-response 50 μmol/L to 1 nmol/L, mean ± SD
Method: as §1

[4] = test system: Hs 863.T.; experiment: as above; format: cell-based; conditions: control cell line, 12-point dose-response, mean ± SD
Method: as §1

[5] = test system: TC-71; experiment: as above; format: cell-based; conditions: 12-point dose-response 50 μmol/L to 1 nmol/L, mean ± SD
Method: as §1

[6] = test system: CHLA-258; experiment: as above; format: cell-based; conditions: 12-point dose-response 50 μmol/L to 1 nmol/L, mean ± SD
Method: as §1

[7] = test system: Hs 822.T.; experiment: as above; format: cell-based; conditions: control cell line, 12-point dose-response, mean ± SD
Method: as §1

[8] = test system: A673; experiment: as above; format: cell-based; conditions: 12-point dose-response 50 μmol/L to 1 nmol/L, mean ± SD
Method: as §1

[9] = test system: Hs 919.T.; experiment: as above; format: cell-based; conditions: control cell line, 12-point dose-response, mean ± SD
Method: These drugs were chosen based on their known mechanisms and safety profiles. We also tested the synergy between these drug hits (Supplementary Figures S6–S11). […] We evaluated the anti-proliferation effect in combination treatments using the EWS and control cell lines.
as §1

[10] = test system: EWS cell lines; experiment: Combination study (dose matrix, CellTiter-Glo, combination index); format: cell-based
Method: Next, the predicted and library screened drugs were extensively validated. The in vitro activities of each drug hit were evaluated in an expanded panel of EWS cell lines (either the EWS/FLI1 or the EWS/ERG fusion) (Table 1) and confirmed employing 12-point dose-response curves ranging from 50 μmol/L to 1 nmol/L, with triplicate sampling (Table 3). As mentioned above, one of the most notable drug hits discovered through both the in silico and in vitro drug screening approaches was auranofin. Based on this finding, we subsequently screened auranofin against six other marketed or investigational anticancer drug hits (carfilzomib, elesclomol, bortezomib, geldanamycin, AUY922, and ganetespib, Supplementary Figures S1–S5 and Figure 2). These drugs were chosen based on their known mechanisms and safety profiles. […] We evaluated the anti-proliferation effect in combination treatments using the EWS and control cell lines. […]
For hits validation and combination study, cells were harvested and aliquoted into 384-well plates at concentrations of 750–1,500 cells per well in a total of 20 μl/well using a Matrix Wellmate (Thermo Scientific). […] Cell proliferation was evaluated using Cell-Titer Glo® reagents (Promega). IC50 values were determined for each drug using SigmaPlot (Systat Software). The combination index values were calculated using SigmaPlot (Systat Software) and CompuSyn.

[11] = test system: cancer cells with EWS-FLI1 mutations; parameters: method as in GDSC database, cancerrxgene.org; conditions: ref GDSC database, cancerrxgene.org; cited from earlier work
[12] = 24-month study in rats; auranofin 1.0 or 2.5 mg/kg/day orally; gold sodium thiomalate 2 or 6 mg/kg twice weekly; cited from earlier work
[13] = test system: A673 cells; experiment: In vivo xenograft mouse model; conditions: auranofin 12 mg/kg i.p. 5 days per week, ganetespib 150 mg/kg i.v. once weekly; p < 0.05
Method: To assess the antitumor activity of auranofin (using an alternative delivery approach), ganetespib and the combination treatments in vivo, we generated a xenograft nude mouse model by injecting A673 cells intramuscularly proximal to the tibia. Based on the dose tolerance and pharmacokinetic studies described above, we administered auranofin at a tolerable daily i.p. dose that achieved adequate systemic drug exposure. Auranofin was administered with a dose of 12 mg/kg through an i.p. injection once a day for 5 days per week, and ganetespib was administered with a dose of 150 mg/kg through an i.v. injection once weekly. Mice that grew palpable tumors were randomized into four groups: vehicle, auranofin-only, ganetespib-only, and the combination.
The guidelines adopted by the Institutional Animal Care and Use Committee of the University of Kansas Medical Center (KUMC-IACUC) were followed in all performed procedures. All experimental protocols were approved by KUMC-IACUC. Homozygous athymic nude (Foxn1nu/Foxn1nu) female mice at the age of 4-weeks were purchased from Jackson Laboratories. After one week, one million A673 cells in PBS (pH = 7.3) were injected into mice. The cells were injected intramuscularly proximal to the tibia and treatment started after 15 days of inoculation. Mice developing palpable tumors were divided into 4 arms and treated for up to 18 days: vehicle (20% Cremophor RH40 and 80% D5W iv and 0.5% HPMC K4M ip), auranofin (12 mg/kg i.p. injection 5 days per week), ganetespib (150 mg/kg i.v. injection once weekly), as well as auranofin and ganetespib combined. Mice were evaluated for overall health and weighed every week. When tumor size impeded mobility, mice were sacrificed and necropsies were performed. Tumors were then dissected, measured and processed for analysis. The liver, kidneys, and spleen were also snap frozen in liquid nitrogen or fixed in 10% neutral buffered formalin and paraffin embedded for toxicity studies. Tissues were then subjected to hematoxylin and eosin (H&E) staining and immunohistochemical staining. […]

Structure (SMILES) | IC50 ([1]; RD-ES) | IC50 ([2]; Homo sapiens, SK-ES1) | IC50 [3] | IC50 [4] | IC50 ([5]; TC-71) | IC50 [6] | IC50 [7] | IC50 ([8]; Homo sapiens, A673) | IC50 [9] | synergy in combination with auranofin [10] | sensitivity of cancer cells with EWS-FLI1 mutations compared with wild-type [11] | frequency of renal tubular cell karyomegaly and cytomegaly and renal adenoma [12] | survival rate versus control group [13] | IC50 [1] | IC50 [2] | IC50 [5] | IC50 [8]
CCNC(=O)c1noc(-c2cc(C(C)C)c(O)cc2O)c1-c1ccc(CN2CCOCC2)cc1 [AUY922] | 0.009 ± 0.001 µM | 0.03 ± 0.002 µM | < 0.003 µM | > 20 µM | < 0.003 µM | < 0.003 µM | > 20 µM | 0.02 ± 0.002 µM | > 20 µM | highly synergistic | – | – | – | – | – | – | –
CN(NC(=O)CC(=O)NN(C)C(=S)c1ccccc1)C(=S)c1ccccc1 [Elesclomol] | 0.05 ± 0.06 µM | 0.01 ± 0.001 µM | 0.007 ± 0.002 µM | > 20 µM | < 0.003 µM | < 0.003 µM | > 20 µM | 0.006 ± 0.006 µM | > 20 µM | – | preferentially sensitive | – | – | – | – | – | –
CC(C)C[C@H](NC(=O)[C@H](Cc1ccccc1)NC(=O)c1cnccn1)B(O)O [Bortezomib] | 0.01 ± 0.001 µM | 0.02 ± 0.002 µM | 0.005 µM | 0.18 ± 0.03 µM | 0.005 ± 0.0081 µM | 0.007 µM | 0.45 ± 0.08 µM | 0.01 ± 0.003 µM | 0.17 ± 0.003 µM | – | – | – | – | – | – | – | –
c1coc(CNc2ncnc3[nH]cnc23)c1 [Kinetin] | > 50 µM | > 50 µM | > 50 µM | > 50 µM | > 50 µM | > 50 µM | > 50 µM | > 50 µM | > 50 µM | – | – | – | – | – | – | – | –
CN(C)CCCN1c2ccccc2Sc2ccc(Cl)cc21 [Chlorpromazine] | > 25 µM | > 25 µM | 16.1 ± 2.29 µM | 18.4 ± 3.07 µM | 17.6 ± 8.63 µM | 15.3 ± 4.55 µM | 16.8 ± 3.22 µM | 10.6 ± 2.15 µM | 15.5 ± 2.09 µM | – | – | – | – | – | – | – | –
COc1cc2nc(N3CCN(C(=O)C4COc5ccccc5O4)CC3)nc(N)c2cc1OC (centres unmarked) [Doxazosin] | > 25 µM | 20.4 ± 5.87 µM | 17.1 ± 6.58 µM | 14.6 ± 3.02 µM | 22.5 ± 9.35 µM | 16.1 ± 6.78 µM | 15.7 ± 2.12 µM | 5.6 ± 1.52 µM | 18.5 ± 3.27 µM | – | – | – | – | – | – | – | –
O=C(O)CCC(=O)c1ccc(-c2ccccc2)cc1 [Fenbufen] | > 50 µM | > 50 µM | > 50 µM | > 50 µM | > 50 µM | > 50 µM | > 50 µM | > 50 µM | > 50 µM | – | – | – | – | – | – | – | –
O=C([O-])CC([S-])C(=O)[O-].[Au+].[Na+].[Na+] (centres unmarked) [gold sodium thiomalate] | – | – | – | – | – | – | – | – | – | – | – | significant incr ease | – | – | – | – | –
O=C(Nc1ccc([N+](=O)[O-])cc1Cl)c1cc(Cl)ccc1O [Niclosamide] | 8.54 ± 1.55 µM | 12.5 ± 2.36 µM | 0.42 ± 0.07 µM | 10.5 ± 2.66 µM | 0.79 ± 0.47 µM | 0.7 ± 0.14 µM | 15.2 ± 3.51 µM | 7.02 ± 1.23 µM | 10.6 ± 2.84 µM | – | – | – | – | – | – | – | –
COc1cc2nc(N(C)CCCNC(=O)C3CCCO3)nc(N)c2cc1OC (centres unmarked) [Alfuzosin] | > 50 µM | > 50 µM | > 50 µM | > 50 µM | > 50 µM | > 50 µM | > 50 µM | > 50 µM | > 50 µM | – | – | – | – | – | – | – | –
CC(C)c1cc(-c2n[nH]c(=O)n2-c2ccc3c(ccn3C)c2)c(O)cc1O [ganetespib] | 0.02 ± 0.02 µM | 0.01 ± 0.001 µM | < 0.003 µM | > 20 µM | < 0.003 µM | < 0.003 µM | > 20 µM | 0.04 ± 0.01 µM | > 20 µM | highly synergistic | – | – | significantly increased the survival rate | – | – | – | –
CCC(C)(C)C(=O)O[C@H]1C[C@@H](C)C=C2C=C[C@H](C)[C@H](CC[C@@H]3C[C@@H](O)CC(=O)O3)[C@H]21 [Simvastatin] | 3.25 ± 0.14 µM | 3.86 ± 0.89 µM | 10.5 ± 1.7 µM | 4.1 ± 0.56 µM | 4.33 ± 3.86 µM | 0.25 ± 0.13 µM | 2.08 ± 0.84 µM | 0.58 ± 0.05 µM | 2.88 ± 0.58 µM | – | – | – | – | – | – | – | –
COc1ccc(C[C@H]2NC[C@H](O)[C@H]2OC(C)=O)cc1 [Anisomycin] | – | – | 0.02 ± 0.01 µM | 0.2 ± 0.01 µM | – | 0.08 ± 0.01 µM | 0.15 ± 0.05 µM | – | 0.15 ± 0.02 µM | – | – | – | – | 0.15 ± 0.02 µM | 0.2 ± 0.01 µM | 0.04 ± 0.01 µM | 0.12 ± 0.01 µM
